According to patent US20260053861A1, “CELL COMPOSITIONS AND METHODS OF USING THE SAME” (THE REGENTS OF THE UNIVERSITY OF CALIFORNIA, priority 2022, published 2026):
Where a name gives a salt, the structure may show the parent alone.

system: hPSC-SCs; conditions: not given

| Compound | z.score.t |
| --- | --- |
| COP(=O)(OC)C(O)C(Cl)(Cl)Cl (stereo not shown) [Trichlorfon] | −0.04944 |
| COc1cc2c(c(OC)c1OC)-c1ccc(O)c(=O)cc1C(N)CC2 (stereo not shown) [Trimethylcolchicinic acid] | −0.07901 |
| CN1[C@@H]2CC[C@H]1C[C@@H](O)C2 [Tropine] | −0.6133 |
| COc1cc2c3cc1Oc1cc(ccc1O)C[C@@H]1c4c(cc(OC)c(O)c4Oc4ccc(cc4)C[C@@H]3N(C)CC2)CC[N+]1(C)C.Cl.O.O.O.O.O.[Cl-] [Tubocurarine chloride pentahydrate (+)] | −1.166 |
| Cc1cccc(C)c1N=C1NCCCS1 [Xylazine] | 1.75 |
| O.O=C(O)[C@@H]1[C@H]2C[C@H]3c4[nH]c5ccccc5c4CCN3C[C@@H]2CC[C@@H]1O [Yohimbinic acid monohydrate] | −0.2065 |
| CC1=C2[C@H]3OC(=O)[C@@H](C)[C@@H]3CC[C@@]2(C)C=CC1=O [alpha-Santonin] | −1.108 |
| CC[N+]1(C)[C@@H]2CC[C@H]1CC(OC(=O)[C@@H]1CC[C@@](C(=O)OC3C[C@H]4CC[C@@H](C3)[N+]4(C)CC)(c3ccccc3)c3ccccc31)C2.[Cl-].[Cl-] (stereo partly drawn) [beta-Belladonnine dichloroethylate] | 1.872 |
| (−)-MK 801 hydrogen maleate | 1.657 |
| (−)-Quinpirole hydrochloride | 1.683 |
| Antimycin A | −1.787 |
| Avermectin B1 | 0.7158 |
| Bromocryptine mesylate | −1.272 |
| Butirosin disulfate salt | −0.5169 |
| Colistin sulfate | −0.4139 |
| Cotinine (−) | −0.139 |

| Compound | z.score.t |
| --- | --- |
| Cyanocobalamin | 0.837 |
| Cytisine (−) | −0.1641 |
| Deptropine citrate | −0.247 |
| Dihydroergotamine tartrate | −0.5417 |
| Foliosidine | −0.2802 |
| Guanadrel sulfate | 0.7158 |
| Helveticoside | 1.053 |
| Isoetharine mesylate salt | 0.5976 |
| Lycorine hydrochloride | −2.213 |
| Mephentermine hemisulfate | −0.2359 |
| Merbromin | −0.7567 |
| Pridinol methanesulfonate salt | −0.7183 |
| Retrorsine | −0.3526 |
| Solanine alpha | −0.2486 |
| Tyloxapol | −1.008 |
| Viomycin sulfate | −0.2329 |

same assay, conditions: HTS viability of hPSC-SCs in the presence of 30 mM glucose; Prestwick library; Table S4

| Compound | z.score.t |
| --- | --- |
| C[C@]12C=CC(=O)C=C1CC[C@H]1[C@@H]3C[C@@H](O)[C@](O)(C(=O)CO)[C@@]3(C)C[C@H](O)[C@@]12F [Triamcinolone] | 2.024 |
| Nc1nc(N)c2nc(-c3ccccc3)c(N)nc2n1 [Triamterene] | 0.4903 |
| CCOC1O[C@H]([C@@H](COCc2ccccc2)OCc2ccccc2)[C@H](OCc2ccccc2)[C@H]1O (stereo partly shown) [Tribenoside] | −1.558 |
| NS(=O)(=O)c1cc2c(cc1Cl)NC(C(Cl)Cl)NS2(=O)=O (stereo not shown) [Trichlormethiazide] | −0.03362 |
| CC[N+](CC)(CC)CCC(O)(c1ccccc1)C1CCCCC1.[Cl-] (stereo not shown) [Tridihexethyl chloride] | −1.558 |
| CN1CCN(CCCN2c3ccccc3Sc3ccc(C(F)(F)F)cc32)CC1 [Trifluoperazine dihydrochloride] | −1.866 |
| CN(C)CCCN1c2ccccc2Sc2ccc(C(F)(F)F)cc21 [Triflupromazine hydrochloride] | −1.512 |
| O=c1[nH]c(=O)n([C@H]2C[C@H](O)[C@@H](CO)O2)cc1C(F)(F)F [Trifluridine] | −0.7873 |
| CC(=O)Oc1cc(C(F)(F)F)ccc1C(=O)O [Triflusal] | 1.139 |
| C[n+]1cccc(C(=O)[O-])c1 [Trigonelline] | 0.9213 |
| Cl.OC(CCN1CCCCC1)(c1ccccc1)C1CCCCC1 (stereo not shown) [Trihexyphenidyl-D, L Hydrochloride] | −1.107 |
| COc1ccc(CN2CCNCC2)c(OC)c1OC [Trimetazidine dihydrochloride] | 0.2189 |
| CN1C(=O)OC(C)(C)C1=O [Trimethadione] | 1.08 |
| COc1cc(C(=O)NCc2ccc(OCCN(C)C)cc2)cc(OC)c1OC [Trimethobenzamide hydrochloride] | −0.2719 |
| COc1cc(Cc2cnc(N)nc2N)cc(OC)c1OC [Trimethoprim] | 0.2479 |
| Cc1cc2cc3c(C)cc(=O)oc3c(C)c2o1 [Trioxsalen] | −0.1913 |
| Cc1ccc(/C(=C\CN2CCCC2)c2ccccn2)cc1 [Triprolidine hydrochloride] | 0.2479 |
| CO[C@H]1C[C@H](O[C@H]2[C@H](C)[C@@H](O[C@@H]3O[C@H](C)C[C@H](N(C)C)[C@H]3OC(C)=O)[C@@H](C)C[C@@]3(CO3)C(=O)[C@H](C)[C@@H](OC(C)=O)[C@@H](C)[C@@H](C)OC(=O)[C@@H]2C)O[C@@H](C)[C@@H]1OC(C)=O [Troleandomycin] | 1.067 |
| Cc1c(C)c2c(c(C)c1O)CCC(C)(C(=O)O)O2 (stereo not shown) [Trolox] | 2.048 |
| CN1[C@@H]2CC[C@H]1C[C@@H](OC(=O)c1c[nH]c3ccccc13)C2 [Tropisetron HCl] | −0.7595 |
| CO[C@@H]1C=C2CCN(C)[C@@H]2C2c3cc4c(cc3C(=O)OC21)OCO4.O=[N+]([O-])O (stereo partly shown) [Ungerine nitrate] | 1.117 |

| Compound | z.score.t |
| --- | --- |
| COc1ccccc1N1CCN(CCCNc2cc(=O)n(C)c(=O)n2C)CC1 [Urapidil hydrochloride] | 0.4105 |
| C[C@H](CCC(=O)O)[C@H]1CC[C@H]2[C@@H]3[C@@H](O)C[C@@H]4C[C@H](O)CC[C@]4(C)[C@H]3CC[C@]12C [Urosiol] | −0.6988 |
| C[C@H]1[C@H](C)CC[C@]2(C(=O)O)CC[C@]3(C)C(=CC[C@@H]4[C@@]5(C)CC[C@H](O)C(C)(C)[C@@H]5CC[C@]43C)[C@H]12 [Ursolic acid] | −0.765 |
| Nc1ncnc2c1ncn2[C@@H]1O[C@H](CO)[C@@H](O)[C@@H]1O [Vidarabine] | 0.1019 |
| C=CC(N)CCC(=O)O (stereo not shown) [Vigabatrin] | −0.8304 |
| CC[C@]12CCCN3CCc4c(n(c5ccccc45)[C@@](O)(C(=O)OC)C1)[C@@H]32 [Vincamine] | 0.08508 |
| CCOC(=O)C1=C[C@]2(CC)CCCN3CCc4c(n1c1ccccc41)[C@@H]32 [Vinpocetine] | 0.6517 |
| O=c1cc(-c2ccc(O)cc2)oc2c([C@@H]3O[C@H](CO)[C@@H](O)[C@H](O)[C@H]3O)c(O)cc(O)c12 [Vitexin] | −0.05622 |
| O=C(NCCNCC(O)COc1ccc(O)cc1)N1CCOCC1 (stereo not shown) [Xamoterol hemifumarate] | 0.81 |
| Cc1cc(C(C)(C)C)cc(C)c1CC1=NCCN1 [Xylometazoline hydrochloride] | −0.827 |
| COC(=O)[C@@H]1[C@H]2C[C@H]3c4[nH]c5ccccc5c4CCN3C[C@@H]2CC[C@@H]1O [Yohimbine hydrochloride] | 0.6763 |
| Nc1ccn([C@H]2CC[C@@H](CO)O2)c(=O)n1 [Zalcitabine] | −0.9487 |
| CCCOc1ccccc1-c1nc2nn[nH]c2c(=O)[nH]1 [Zaprinast] | −0.4341 |
| COc1cc(-c2ccc(=O)[nH]n2)ccc1OC(F)F [Zardaverine] | −1.128 |
| Cc1cn([C@H]2C[C@H](N=[N+]=[N-])[C@@H](CO)O2)c(=O)[nH]c1=O [Zidovudine, AZT] | −0.8478 |
| CN(C)C/C=C(/c1ccc(Br)cc1)c1cccnc1 [Zimelidine dihydrochloride monohydrate] | 0.4064 |
| Cc1cc(CC(=O)O)n(C)c1C(=O)c1ccc(Cl)cc1 [Zomepirac sodium salt] | −0.9042 |
| OCCN1CCN(CC/C=C2/c3ccccc3Sc3ccc(Cl)cc32)CC1 [Zuclopenthixol hydrochloride] | −1.345 |
| CCCCNC(=O)NS(=O)(=O)c1ccc(C)cc1 [tolbutamide, Tolbutamide, reference compound] | 2.089 |
| (S)-(−)-Atenolol | 1.606 |
| (S)-propranolol hydrochloride | 0.6803 |

| Compound | z.score.t |
| --- | --- |
| Alverine citrate salt | −1.025 |
| Beta-Escin | −0.5583 |
| Carbinoxamine maleate salt | 0.07936 |
| Clofilium tosylate | −0.6227 |
| Dihydroergotoxine mesylate | 0.9377 |
| Eburnamonine (−) | 1.516 |
| Ifenprodil tartrate | −1.132 |
| Iobenguane sulfate | 0.3845 |
| Ketanserin tartrate hydrate | −1.137 |
| Pizotifen malate | −0.2329 |
| S(−)Eticlopride hydrochloride | −0.5169 |
| Spiramycin | 0.7158 |
| Terbutaline hemisulfate | −1.238 |
| Thioproperazine dimesylate | −1.223 |
| Timolol maleate salt | −0.6395 |
| Trimeprazine tartrate | −0.411 |
| Trimipramine maleate salt | 0.2361 |
| Tropicamide | −0.1241 |
| Verteporfin | −1.551 |
| Vitamin K2 | −0.4141 |
